US20240300943A1, “NOVEL SALTS OF HETEROCYCLIC COMPOUND AS PROTEIN KINASE INHIBITOR AND USES THEREOF” (HK INNO.N CORPORATION, priority 2021, published 2024)
One block for each molecule: values may come before it.

How the values were obtained:
[1] = tested on: DSS-induced animal model (C57BL/6J mice); assay: DSS-induced colitis model; assay type: in vivo; conditions: oral
Procedure: To induce colitis in C57BL/6J mice, drinking water was treated with 3% dextran sodium sulphate (DSS) and provided each morning for eight days, and a negative control group was provided with 0% DSS.
After mice were grouped into several groups (day O), the mice were orally dosed with 0.5% methylcellulose and Compound 1 obtained according to Preparation Example 1 as a test material at 9 a.m. and 5 p.m. every day from day 1 to day 7. Test animals were autopsied on day 8.
Disease activity index (DAI) was calculated as body weight, fecal […], and fecal blood score to represent the severity of the disease. Body weight and food intake were monitored and evaluated at the start of the study and every 24 hours, and fecal samples were collected on days 0, 3, 5, and 7 and analyzed according to Table 6 below.
After measuring the weight and length of the colon obtained by autopsy, the weight-to-length ratio was calculated.
On day 8, blood was drawn from the heart into a centrifuge tube containing EDTA-K2 anticoagulant. After centrifugation (7000 rpm, 10 minutes, 4° C.), plasma was separated, and KC and MIP-2 were measured by Meso Scale Discovery Kit.
The mRNA was extracted from a portion of large intestine tissues (same location for each animal) to analyze an expression level of MX2 and TNF-alpha in the tissues through qPCR.
The large intestine part fixed with 10% formalin was cut with paraffin and stained with hematoxylin-eosin. The criteria for histological changes in the colon followed Table 7 below.

JAK1 = JAK1 (Homo sapiens, UniProt P23458); assay: ADP-Glo JAK1 kinase assay; assay type: biochemical
Chain of JAK1 (P23458 whole entry, species assumed): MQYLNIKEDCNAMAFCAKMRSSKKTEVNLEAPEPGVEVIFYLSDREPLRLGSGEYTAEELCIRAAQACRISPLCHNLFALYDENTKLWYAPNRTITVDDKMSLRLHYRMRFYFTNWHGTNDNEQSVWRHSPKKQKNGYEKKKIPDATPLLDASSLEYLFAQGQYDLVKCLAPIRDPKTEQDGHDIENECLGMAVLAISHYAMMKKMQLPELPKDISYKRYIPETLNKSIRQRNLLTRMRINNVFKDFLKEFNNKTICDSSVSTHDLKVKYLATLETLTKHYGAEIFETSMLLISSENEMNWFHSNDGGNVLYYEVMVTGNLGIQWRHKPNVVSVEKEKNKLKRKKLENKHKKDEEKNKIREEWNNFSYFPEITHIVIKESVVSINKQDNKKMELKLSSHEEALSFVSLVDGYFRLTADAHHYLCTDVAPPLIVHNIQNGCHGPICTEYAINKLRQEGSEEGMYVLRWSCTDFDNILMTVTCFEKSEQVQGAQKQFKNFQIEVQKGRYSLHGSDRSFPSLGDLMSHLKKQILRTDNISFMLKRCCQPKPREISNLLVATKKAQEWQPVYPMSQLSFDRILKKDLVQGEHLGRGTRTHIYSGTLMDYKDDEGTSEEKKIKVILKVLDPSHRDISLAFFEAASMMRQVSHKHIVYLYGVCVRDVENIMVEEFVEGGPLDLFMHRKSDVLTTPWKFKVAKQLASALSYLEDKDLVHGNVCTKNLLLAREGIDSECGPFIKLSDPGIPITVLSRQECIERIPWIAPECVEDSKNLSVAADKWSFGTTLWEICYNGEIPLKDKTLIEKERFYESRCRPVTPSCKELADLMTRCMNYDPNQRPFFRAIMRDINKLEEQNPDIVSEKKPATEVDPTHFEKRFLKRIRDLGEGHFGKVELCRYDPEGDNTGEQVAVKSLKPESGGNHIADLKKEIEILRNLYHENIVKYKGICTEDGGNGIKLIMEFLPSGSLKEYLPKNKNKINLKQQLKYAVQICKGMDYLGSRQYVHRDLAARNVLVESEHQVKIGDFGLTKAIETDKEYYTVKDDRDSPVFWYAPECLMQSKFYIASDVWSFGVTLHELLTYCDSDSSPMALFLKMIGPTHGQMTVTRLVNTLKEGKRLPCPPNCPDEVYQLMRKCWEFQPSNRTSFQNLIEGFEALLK
Procedure: 10 mM of (S)—N-(4-(1-(2-cyanoacetyl)-3-methyl-1,2,3,6-tetrahydropyridin-4-yl)-1H-pyrrolo[2,3-b]pyridin-6-yl)cyclopropanecarboxamide (hereinafter, referred to as Compound 1), which is the heterocyclic compound represented by formula II obtained according to Preparation Example 1, was diluted in DMSO to prepare samples at five concentrations (1,000 nM, 200 nM, 40 nM, 8 nM, and […]). 10 mM of ATP and 10 mg/mL of insulin receptor substrate (IRS) were diluted at 1/40 and 1/50, respectively, in 1× kinase buffer. In addition, 222 ng/μL of JAK1 enzyme was diluted at ⅛ in 1× kinase buffer to make a preparation. 1 μL of ATP, 1 μL of IRS, and 1 μL of Compound 1 prepared as above were mixed, after which 2 μL of JAK1 enzyme was finally added and reacted at 30° C. for 40 minutes. At this time, a tube without JAK1 enzyme was prepared for a blank and a tube without Compound 1 was prepared as a positive control group together (a final concentration of samples was 200 nM, 40 nM, 8 nM, 1.6 nM, and 0.32 nM).
Then, 5 μL of ADP-glo was added to each tube and reacted at 30° C. for 40 minutes, after which 10 μL of kinase detection reagent was added thereto and reacted at room temperature for 15 minutes. After 18 μL of the reactant was transferred to a 384 well plate, luminescence was measured using a plate reader.

JAK1, 3 = assay: Human whole blood assay, JAK1, 3; assay type: cell-based; conditions: cytokine-induced STAT phosphorylation
[2] = tested on: DNCB-induced animal model (NC/Nga mice); assay: DNCB-induced atopic dermatitis model (topical); assay type: in vivo; conditions: for Reduction of scratching behavior compared to the control group (vehicle): week 4, FIG. 12
Procedure: NC/Nga mice were anesthetized with isoflurane and the dorsal hair (from the bottom of the ear to the top of the tail) was then removed. The NC/Nga mice were left for 24 hours for recovery of fine wounds on the shaved skin.
After healing, 200 μL of 1%1-chloro-2,4-dinitrobenzene (DNCB) in acetone/olive oil (3:1) was topically applied to the dorsal skin (primary skin application). Secondary skin application was performed after three days for sensitization.
Seven days after the primary skin application, 150 μL of 0.4% DNCB in acetone/olive oil (3:1) was topically applied, and applied to the dorsal skin three times a week for five weeks.
The phosphate of Compound 1 (hereinafter, referred to as a phosphate compound) obtained according to Example 3 was used as a test material, and the test material was treated before applying DNCB from two weeks after the primary skin application. The dosage of the test material was calculated based on a body weight of mice measured on the day of administration, and the test material was topically applied to atopic skin using a glass stick (a total of 56 times twice a day for 28 days, six hours at a treatment interval). 0.5% methylcellulose (0.5% MC) was administered to the control group (vehicle).
Week 6 after the primary skin application, the test animals were autopsied. Specifically, the test animals were anesthetized using isoflurane, and as much blood as possible was drawn from the caudal vena cava with a syringe and stored in a 5 mL vacuum tube containing a blood clot activator. The blood was allowed to stand at room temperature for 15-20 minutes for coagulation and then centrifuged at 3000 rpm for 10 minutes.
Atopic dermatitis scores were rated as none (0), mild (1), moderate (2), and severe (3) for each of the five symptoms (erythema, dryness, skin edema and hematoma, erosion, and keratinization). The total dermatitis score representing clinical severity was defined as the sum of all scores (maximum score: 15). The evaluation was conducted twice a week by the same researcher at the same time.
To evaluate a scratching behavior at week 4, mice were placed in cages and the frequency of scratching was evaluated for 30 minutes.
Quantitative analysis was performed using a serum IgE and histamine with ELISA kit.
After measuring a weight of the spleen and mouse, a spleen-to-body weight ratio (relative organ weight) was calculated.
TARC, TSLP, IL-4, IL-1B and TNF-α were quantified using skin tissue through qRT-PCR.
On the day of autopsy, the skin in 10% neutral buffered formalin solution was analyzed by staining with H & E and toluidine blue.

[3] = Photostability evaluation; assay type: physicochemical
Text: Samples were packaged in LPDE bag, and stored under visible (1.2M Lux-h), UV (200 W-h/m2) and UV+visible conditions, respectively, and then evaluated.

- IC50 (JAK1; ADP-Glo kinase assay, read-out: IC50, In vitro enzyme JAK1): 3.8 nM
- JAK1 inhibitory activity (JAK1; summary of Experimental Examples 1 to 3): very excellent JAK1 inhibitory activity
- IC50 (JAK1, 3): 544 nM
Compound: C[C@@H]1CN(C(=O)CC#N)CC=C1c1cc(NC(=O)C2CC2)nc2[nH]ccc12 [Compound 1, (S)—N-(4-(1-(2-cyanoacetyl)-3-methyl-1,2,3,6-tetrahydropyridin-4-yl)-1H-pyrrolo[2,3-b]pyridin-6-yl)cyclopropanecarboxamide]
- Disease activity index (DAI) ([1]; 90 mg/kg, FIG. 21): reduced to half that of the control group (vehicle)
- Weight-to-length ratio of colon ([1]; FIG. 22): lower value compared to the control group (vehicle)
- Histopathological score ([1]; FIG. 24): lowered
- KC concentration in plasma ([1]; day 8, FIG. 23): decreased
- MIP-2 concentration in plasma ([1]; day 8, FIG. 23): decreased
- Expression level of MX2 in the colon ([1]; qPCR, FIG. 23): decreased
- Expression level of TNF-alpha in the colon ([1]; qPCR, FIG. 23): decreased
- Degree of increase in disease activity index (DAI) ([1]; twice daily day 1 to day 7, FIG. 21): lower than that of the control group (vehicle)

- Individual related material ([3]; Initial): 0.08%
- Total related material ([3]; Initial): 0.45%
- Individual related material ([3]; Solid, Control): 0.07%
- Total related material ([3]; Solid, Control): 0.37%
- Individual related material ([3]; Solid, UV (200 W-h/m2)): 0.1%
- Total related material ([3]; Solid, UV (200 W-h/m2)): 0.42%
- Individual related material ([3]; Solid, UV + Vis): 0.08%
- Total related material ([3]; Solid, UV + Vis): 0.5%
- Individual related material ([3]; Solid, UV + Vis Control): 0.08%
- Total related material ([3]; Solid, UV + Vis Control): 0.48%
- Individual related material ([3]; Solid, Vis (1.2M Lux-h)): 0.07%
- Total related material ([3]; Solid, Vis (1.2M Lux-h)): 0.41%
Compound: C[C@@H]1CN(C(=O)CC#N)CC=C1c1cc(NC(=O)C2CC2)nc2[nH]ccc12 [Example 3, (S)—N-(4-(1-(2-cyanoacetyl)-3-methyl-1,2,3,6-tetrahydropyridin-4-yl)-1H-pyrrolo[2,3-b]pyridin-6-yl)cyclopropanecarboxamide]
- Reduction of scratching behavior compared to the control group (vehicle) ([2]; 3% phosphate compound): at least 50%
- Skin severity score (clinical atopic dermatitis score) ([2]; FIG. 11): significantly reduced
- Spleen-to-body weight ratio ([2]; FIG. 15): decreased
- Histological properties of atopic dermatitis (skin staining) ([2]; FIG. 16): changes the histological properties of atopic dermatitis
- Atopic dermatitis-related cytokines of plasma and skin ([2]; FIGS. 13 and 14): reduced
- Reduction of scratching behavior compared to the control group (vehicle) ([2]; dosed groups): at least 30%
- Symptoms of atopic dermatitis ([2]; twice a day for 28 days, FIGS. 11 to 16): ameliorates symptoms of atopic dermatitis
